The subject of data set [1] is Mus musculus. The data set can be described thus: Neurotoxicity in 32 mA current-induced seizure albino CF1 mouse model at 100 mg/kg, ip measured after 0.5 hr. More on the design: dose 100 mg/kg, route intraperitoneal. It counts as toxicity, organism-based. Conditions: in vivo.
Data set [2] has as its system Mus musculus. The data set can be described thus: Anticonvulsant activity in albino CF1 mouse assessed as protection against 32 mA current-induced seizures at 100 mg/kg, ip measured after 0.5 hr. Also noted: dose 100 mg/kg. It counts as functional, organism-based.
Data set [3] deals with Mus musculus. The data set can be described thus: Anticonvulsant activity in albino CF1 mouse assessed as protection against 32 mA current-induced seizures at 100 mg/kg, ip measured after 2 hrs. In kind it is functional, organism-based. More on the design: dose 100 mg/kg.
The test system of data set [4] is Rattus norvegicus. The data set can be described thus: Anticonvulsant activity in pilocarpine-induced status prevention Sprague-Dawley rat model assessed as weight change 24 hrs post-first stage 3 seizure of non-protected rat at 300 mg/kg, ip measured after 0.5 hr. In kind it is functional. Conditions: route intraperitoneal.
For data set [5], the system named is Mus musculus. The data set can be described thus: Anticonvulsant activity in albino CF1 mouse assessed as protection against maximal electroshock-induced seizures at 100 mg/kg, ip measured after 1 hr. It counts as functional, organism-based. More on the design: dose 100 mg/kg. On the technique in general: The maximal electroshock test induces tonic seizures with an electrical stimulus.

In data set [6] the test system is Mus musculus. The data set can be described thus: Neurotoxicity in albino CF1 mouse at 100 mg/kg, ip measured after 0.5 hr. In kind it is toxicity, organism-based. More on the design: dose 100 mg/kg, route intraperitoneal. Conditions: in vivo.
Data set [7] has as its system Mus musculus. The data set can be described thus: Neurotoxicity in albino CF1 mouse at 100 mg/kg, ip measured after 1 hr. The note with it: in vivo. In kind it is toxicity, organism-based. Also noted: dose 100 mg/kg, route intraperitoneal.
Data set [8] has as its system Mus musculus. The data set can be described thus: Anticonvulsant activity in albino CF1 mouse assessed as protection against subcutaneous metrazol-induced seizures at 100 mg/kg, ip measured after 4 hrs. In kind it is functional, organism-based. Also noted: dose 100 mg/kg.
For data set [9], the system named is Mus musculus. The data set can be described thus: Neurotoxicity in 32 mA current-induced seizure albino CF1 mouse model at 100 mg/kg, ip measured after 0.25 hr. It counts as toxicity, organism-based. Also noted: dose 100 mg/kg, route intraperitoneal. Conditions: in vivo.
The test system of data set [10] is Rattus norvegicus. The data set can be described thus: Anticonvulsant activity in pilocarpine-induced status prevention Sprague-Dawley rat model assessed as weight change 24 hrs post-first stage 3 seizure of protected rat at 300 mg/kg, ip measured after 0.5 hr. The note with it: route intraperitoneal. It counts as functional.
Data set [11] concerns Mus musculus. The data set can be described thus: Anticonvulsant activity in albino CF1 mouse assessed as protection against subcutaneous metrazol-induced seizures at 100 mg/kg, ip measured after 0.5 hr. In kind it is functional, organism-based. More on the design: dose 100 mg/kg.
In data set [12] the test system is Mus musculus. The data set can be described thus: Anticonvulsant activity in albino CF1 mouse assessed as protection against subcutaneous metrazol-induced seizures at 100 mg/kg, ip measured after 0.25 hr. Also noted: dose 100 mg/kg. In kind it is functional, organism-based.
Data set [13] relates to Mus musculus. The data set can be described thus: Neurotoxicity in albino CF1 mouse at 100 mg/kg, ip measured after 0.25 hr. It counts as toxicity, organism-based. The note with it: in vivo. Also noted: dose 100 mg/kg, route intraperitoneal.
Data set [14] has as its system Mus musculus. The data set can be described thus: Neurotoxicity in albino CF1 mouse at 100 mg/kg, ip measured after 4 hrs. It counts as toxicity, organism-based. Also noted: dose 100 mg/kg, route intraperitoneal. Conditions: in vivo.
Data set [15] relates to Mus musculus. The data set can be described thus: Anticonvulsant activity in albino CF1 mouse assessed as protection against subcutaneous metrazol-induced seizures at 100 mg/kg, ip measured after 1 hr. It counts as functional, organism-based. More on the design: dose 100 mg/kg.
The subject of data set [16] is Mus musculus. The data set can be described thus: Anticonvulsant activity in albino CF1 mouse assessed as protection against 32 mA current-induced seizures at 100 mg/kg, ip measured after 0.25 hr. It counts as functional, organism-based. More on the design: dose 100 mg/kg.
In data set [17] the test system is Mus musculus. The data set can be described thus: Anticonvulsant activity in albino CF1 mouse assessed as protection against maximal electroshock-induced seizures at 100 mg/kg, ip measured after 0.25 hr. It counts as functional, organism-based. Also noted: dose 100 mg/kg.
Data set [18] concerns Mus musculus. The data set can be described thus: Anticonvulsant activity in albino CF1 mouse assessed as protection against maximal electroshock-induced seizures at 100 mg/kg, ip measured after 4 hrs. It counts as functional, organism-based. Also noted: dose 100 mg/kg.
Data set [19] has as its system Mus musculus. The data set can be described thus: Neurotoxicity in 32 mA current-induced seizure albino CF1 mouse model at 100 mg/kg, ip measured after 1 hr. It counts as toxicity, organism-based. More on the design: dose 100 mg/kg, route intraperitoneal. The note with it: in vivo.
The subject of data set [20] is Mus musculus. The data set can be described thus: Neurotoxicity in 32 mA current-induced seizure albino CF1 mouse model at 100 mg/kg, ip measured after 4 hrs. It counts as toxicity, organism-based. More on the design: dose 100 mg/kg, route intraperitoneal. The note with it: in vivo.
The test system of data set [21] is Mus musculus. The data set can be described thus: Anticonvulsant activity in albino CF1 mouse assessed as protection against 32 mA current-induced seizures at 100 mg/kg, ip measured after 1 hr. In kind it is functional, organism-based. More on the design: dose 100 mg/kg.
The test system of data set [22] is Mus musculus. The data set can be described thus: Anticonvulsant activity in albino CF1 mouse assessed as protection against maximal electroshock-induced seizures at 100 mg/kg, ip measured after 0.5 hr. In kind it is functional, organism-based. Also noted: dose 100 mg/kg.
The subject of data set [23] is Mus musculus. The data set can be described thus: Anticonvulsant activity in albino CF1 mouse assessed as protection against 32 mA current-induced seizures at 100 mg/kg, ip measured after 4 hrs. It counts as functional, organism-based. More on the design: dose 100 mg/kg.
Data set [24] relates to Mus musculus. The data set can be described thus: Neurotoxicity in 32 mA current-induced seizure albino CF1 mouse model at 100 mg/kg, ip measured after 2 hrs. The note with it: in vivo. More on the design: dose 100 mg/kg, route intraperitoneal. In kind it is toxicity, organism-based.

SMILES strings stand for the structures. Active and inactive are the calls of the source. The rule behind the calls is not given here.

With `O=C1NC(=O)[C@@H]2CCCN2[C@H]1c1ccc(F)cc1`, the Activity entry in data set [1] is given as “Non-toxic”; in data set [4] it was -30 g; in data set [6], “Non-toxic”; in [7], “Non-toxic”; in data set [9] it was “Non-toxic”; in data set [10], -12 g. Moreover, the Activity result in data set [13], in [14], in [19], in data set [20] and in data set [24] was “Non-toxic” throughout. For the same compound, the outcome in [2], in data set [3], in [8], in data set [11], in data set [15] and in data set [18] was inactive. The outcome in [21], in data set [22] and in data set [23] was inactive. Also, the outcome in data set [5], in [12], in data set [16] and in [17] was Active.
